Test results: patent US8592379B2, “Metastin derivative and use thereof” (Kyoto University, priority 2008, dated 2013)
Read-outs that look alike come from different tables or passages of the source.

Legend:
[1] = Half-life of the compound in the serum; conditions: for t1/2: in the serum; for half-life: serum, t1/2, in the serum
Description: (§2) In addition, the half-life (t1/2) of the compound in the serum was measured.

GPR54 [2] = molecular target: T1, GPR54 (Homo sapiens (Human), UniProt Q969F8); assay: Flipr assay of GPR54 agonist activity (increase in intracellular Ca2+ ion concentration); format: cell-based; conditions: for % Activity / activity at 0.01 µM: signal upon addition of 10 nM compound, based on signal of 1 μM kisspeptin-10 as 100%
Description: The GPR54 agonist activity of the obtained compounds was evaluated by Flipr assay measuring increase in the intracellular Ca^2+ ion concentration caused by stimulation of receptor as a signal.

MMP9 = MMP9 (Homo sapiens (Human), UniProt P14780); assay: Resistance to decomposition by matrix protease MMP9; format: in vitro ADME; conditions: for retention after treatment with MMP9: 72 hr, in words
Description: (§1) Furthermore, the resistance of the present invention to the decomposition by matrix protease (MMP) was examined. […] However, only about 50% of compound 1 was retained.

MMP2 = MMP2 (Homo sapiens (Human), UniProt P08253); assay: Resistance to decomposition by matrix protease MMP2; format: in vitro ADME; conditions: for retention after treatment with MMP2: 48 hr, in words
Description: as §1

GPR54 [3] = molecular target: T1, GPR54; assay: Binding inhibitory test using membrane fraction of human GPR54-expressing cell and [125I]-Metastin 40-54
Description: A binding inhibitory test using membrane fraction of human GPR54-expressing cell and [^125I]-Metastin 40-54 was performed, and IC50 value was calculated (see non-patent document 2).

[4] = serum
Description: as §2

T1 sequence (Q969F8 whole entry): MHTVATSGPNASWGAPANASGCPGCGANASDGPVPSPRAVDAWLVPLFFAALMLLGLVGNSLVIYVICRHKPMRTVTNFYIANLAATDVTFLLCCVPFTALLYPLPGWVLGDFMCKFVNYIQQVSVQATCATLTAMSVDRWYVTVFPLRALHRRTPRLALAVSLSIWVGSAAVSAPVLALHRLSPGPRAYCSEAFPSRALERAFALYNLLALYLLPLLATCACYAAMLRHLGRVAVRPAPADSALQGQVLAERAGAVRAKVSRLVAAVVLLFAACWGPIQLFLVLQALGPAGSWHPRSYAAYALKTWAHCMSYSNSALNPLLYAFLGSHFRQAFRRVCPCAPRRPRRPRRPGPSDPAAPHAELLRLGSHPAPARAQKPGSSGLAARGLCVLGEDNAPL

Row | SMILES | t1/2 [1] [h] | % Activity (GPR54 [2]) [%] | half-life [1] [h] | activity at 0.01 µM (GPR54 [2]) [%] | further results
1 | CC(C)CC(C[C@@H](O)CNC(=O)[C@H](Cc1ccccc1)NC(=O)c1ccc(F)cc1)C(=O)N[C@@H](CCCNC(=N)N)C(=O)N[C@@H](Cc1c[nH]c2ccccc12)C(N)=O (single isomer, unassigned) [Compound 24b] | 54 | 53.9 |  |  | 
2 | CC(C)C/C(=C\[C@H](O)CNC(=O)[C@H](Cc1ccccc1)NC(=O)c1ccc(F)cc1)C(=O)N[C@@H](CCCN=C(N)N)C(=O)N[C@@H](Cc1c[nH]c2ccccc12)C(N)=O [Compound 23] |  |  | 1100 | 0.7 | retention after treatment with MMP9 (MMP9): retained even after 72 hr with scarce decomposition
3 | CC(C)C/C(=C\CCNC(=O)[C@H](Cc1ccccc1)NC(=O)c1ccc(F)cc1)C(=O)N[C@@H](CCCNC(=N)N)C(=O)N[C@@H](Cc1c[nH]c2ccccc12)C(N)=O [Compound 21] |  |  | 52 | 49.3 | 
4 | CC(C)C[C@H](/C=C/CNC(=O)[C@H](Cc1ccccc1)NC(=O)c1ccc(F)cc1)C(=O)N[C@@H](CCCN=C(N)N)C(=O)N[C@@H](Cc1c[nH]c2ccccc12)C(N)=O [Compound 19] |  |  | 38 | 97.6 | retention after treatment with MMP2 (MMP2): retained even after 48 hr with scarce decomposition; retention after treatment with MMP9 (MMP9): retained even after 72 hr with scarce decomposition
5 | CC(C)C[C@H](NC(=O)CNC(=O)[C@H](Cc1ccccc1)NC(=O)[C@H](CO)NC(=O)[C@H](CC(N)=O)NC(=O)[C@H](Cc1c[nH]c2ccccc12)NC(=O)[C@H](CC(N)=O)NC(=O)[C@@H](N)Cc1ccc(O)cc1)C(=O)N[C@@H](CCCNC(=N)N)C(=O)N[C@@H](Cc1ccccc1)C(N)=O [Kisspeptin-10, reference compound] |  |  |  |  | remaining at 48 h (MMP2; isolated matrix protease MMP2, read-out: amount retained after treatment with MMP2): ~65%; QEC (GPR54 [2]; EC50 of compound divided by EC50 of kisspeptin-10): 1; QIC (GPR54 [3]; IC50 of compound divided by IC50 of kisspeptin-10): 1; IC50 (GPR54 [3]; [125I]-Metastin 40-54 as labeled ligand, membrane fraction): 70 to 120 pM
6 | CC(C)CC(C[C@H](O)CNC(=O)[C@H](Cc1ccccc1)NC(=O)c1ccc(F)cc1)C(=O)N[C@@H](CCCNC(=N)N)C(=O)N[C@@H](Cc1c[nH]c2ccccc12)C(N)=O (single isomer, unassigned) [Compound 25a] | 120 | 13.8 |  |  | 
7 | CC(C)C/C(=C\[C@@H](O)CNC(=O)[C@H](Cc1ccccc1)NC(=O)c1ccc(F)cc1)C(=O)N[C@@H](CCCNC(=N)N)C(=O)N[C@@H](Cc1c[nH]c2ccccc12)C(N)=O [Compound 22] |  |  | 60 | 18.7 | 
8 | CC(C)C[C@H](CCCNC(=O)[C@H](Cc1ccccc1)NC(=O)c1ccc(F)cc1)C(=O)N[C@@H](CCCNC(=N)N)C(=O)N[C@@H](Cc1c[nH]c2ccccc12)C(N)=O [Compound 20] |  |  | 45 | 70.3 | 
9 | CC(C)C[C@H](NC(=O)CNC(=O)[C@H](Cc1ccccc1)NC(=O)c1ccc(F)cc1)C(=O)N[C@@H](CCCN=C(N)N)C(=O)N[C@@H](Cc1c[nH]c2ccccc12)C(N)=O [Compound 1, reference compound] |  |  |  | 94.7 | t1/2 [4]: 6.6 h; remaining at 72 h (MMP9; isolated matrix protease MMP9, read-out: amount retained after treatment with MMP9): ~50%
10 | CC(C)CC(C[C@@H](O)CNC(=O)[C@H](Cc1ccccc1)NC(=O)c1ccc(F)cc1)C(=O)N[C@@H](CCCNC(=N)N)C(=O)N[C@@H](Cc1c[nH]c2ccccc12)C(N)=O (single isomer, unassigned) [Compound 24a] | 470 | 0.6 |  |  | 
11 | CC(C)CC(C[C@H](O)CNC(=O)[C@H](Cc1ccccc1)NC(=O)c1ccc(F)cc1)C(=O)N[C@@H](CCCNC(=N)N)C(=O)N[C@@H](Cc1c[nH]c2ccccc12)C(N)=O (single isomer, unassigned) [Compound 25b] | 35 | 95.6 |  |  | retention after treatment with MMP2 (MMP2): retained even after 48 hr with scarce decomposition; retention after treatment with MMP9 (MMP9): retained even after 72 hr with scarce decomposition
